Targets include Mu-type opioid receptor (Homo sapiens, UniProt P35372); Histamine H3 receptor (Homo sapiens, UniProt Q9Y5N1); D(3) dopamine receptor (Homo sapiens, UniProt P35462).
In assay [1] the target is Sodium-dependent serotonin transporter (Homo sapiens, UniProt P31645).
Assay [2] deals with T1, Amine oxidase [flavin-containing] A (Homo sapiens, UniProt P21397).
T1 sequence (P21397 whole entry): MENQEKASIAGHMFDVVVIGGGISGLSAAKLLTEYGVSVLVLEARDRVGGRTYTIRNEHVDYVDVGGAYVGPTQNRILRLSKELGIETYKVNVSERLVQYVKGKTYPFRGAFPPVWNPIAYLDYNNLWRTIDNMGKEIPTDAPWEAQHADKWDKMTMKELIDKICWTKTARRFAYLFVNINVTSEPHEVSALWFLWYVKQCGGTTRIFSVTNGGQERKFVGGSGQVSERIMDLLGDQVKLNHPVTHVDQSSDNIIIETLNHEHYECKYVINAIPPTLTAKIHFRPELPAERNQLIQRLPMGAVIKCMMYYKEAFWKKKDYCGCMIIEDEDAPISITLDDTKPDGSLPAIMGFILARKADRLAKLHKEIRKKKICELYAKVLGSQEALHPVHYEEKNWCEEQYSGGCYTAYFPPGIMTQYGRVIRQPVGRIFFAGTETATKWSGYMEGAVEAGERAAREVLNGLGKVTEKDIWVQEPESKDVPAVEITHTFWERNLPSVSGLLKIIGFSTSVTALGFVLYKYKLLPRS
The format is functional.

Assay [3] deals with T2, Prostaglandin G/H synthase 1 (Homo sapiens, UniProt P23219). It is filed as functional.
The target of assay [4] is T2, Prostaglandin G/H synthase 1. The format is functional. The source holds these as a separate data set.
The target of assay [5] is Sodium-dependent dopamine transporter (Homo sapiens, UniProt Q01959).
In assay [6] the target is Sodium-dependent noradrenaline transporter (Homo sapiens, UniProt P23975).
In assay [7] the target is cGMP-inhibited 3',5'-cyclic phosphodiesterase 3A (Homo sapiens, UniProt Q14432). It is filed as functional.
Another assay addresses T3, Progesterone receptor (Homo sapiens, UniProt P06401).
T3 sequence (P06401 whole entry): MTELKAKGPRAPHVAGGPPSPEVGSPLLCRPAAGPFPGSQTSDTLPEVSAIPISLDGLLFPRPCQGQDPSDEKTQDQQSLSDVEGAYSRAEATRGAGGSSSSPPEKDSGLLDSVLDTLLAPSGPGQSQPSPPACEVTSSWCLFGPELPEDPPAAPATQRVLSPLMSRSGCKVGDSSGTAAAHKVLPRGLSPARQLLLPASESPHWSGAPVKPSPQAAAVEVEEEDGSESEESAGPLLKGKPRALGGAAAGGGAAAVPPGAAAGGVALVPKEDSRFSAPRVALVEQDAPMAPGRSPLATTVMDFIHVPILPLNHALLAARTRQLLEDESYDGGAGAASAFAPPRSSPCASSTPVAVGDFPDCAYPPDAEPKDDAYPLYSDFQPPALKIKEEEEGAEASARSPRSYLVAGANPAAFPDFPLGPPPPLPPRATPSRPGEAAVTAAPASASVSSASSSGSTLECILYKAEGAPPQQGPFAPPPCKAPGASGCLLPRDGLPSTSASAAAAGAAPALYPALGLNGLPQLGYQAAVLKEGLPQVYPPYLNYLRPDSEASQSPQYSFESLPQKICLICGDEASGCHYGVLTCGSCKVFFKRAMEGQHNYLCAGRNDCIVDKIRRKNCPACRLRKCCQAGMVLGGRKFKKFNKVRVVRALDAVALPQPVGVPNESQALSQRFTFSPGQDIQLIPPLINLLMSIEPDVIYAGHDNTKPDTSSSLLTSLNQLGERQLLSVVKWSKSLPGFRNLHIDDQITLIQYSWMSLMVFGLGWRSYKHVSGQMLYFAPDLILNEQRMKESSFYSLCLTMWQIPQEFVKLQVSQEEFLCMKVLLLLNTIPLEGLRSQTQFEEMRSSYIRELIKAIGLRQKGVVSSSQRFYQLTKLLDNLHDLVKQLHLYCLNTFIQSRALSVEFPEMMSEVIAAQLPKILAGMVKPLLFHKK

The target of a further assay is T4, Estrogen receptor (Homo sapiens, UniProt P03372).
T4 sequence (P03372 whole entry): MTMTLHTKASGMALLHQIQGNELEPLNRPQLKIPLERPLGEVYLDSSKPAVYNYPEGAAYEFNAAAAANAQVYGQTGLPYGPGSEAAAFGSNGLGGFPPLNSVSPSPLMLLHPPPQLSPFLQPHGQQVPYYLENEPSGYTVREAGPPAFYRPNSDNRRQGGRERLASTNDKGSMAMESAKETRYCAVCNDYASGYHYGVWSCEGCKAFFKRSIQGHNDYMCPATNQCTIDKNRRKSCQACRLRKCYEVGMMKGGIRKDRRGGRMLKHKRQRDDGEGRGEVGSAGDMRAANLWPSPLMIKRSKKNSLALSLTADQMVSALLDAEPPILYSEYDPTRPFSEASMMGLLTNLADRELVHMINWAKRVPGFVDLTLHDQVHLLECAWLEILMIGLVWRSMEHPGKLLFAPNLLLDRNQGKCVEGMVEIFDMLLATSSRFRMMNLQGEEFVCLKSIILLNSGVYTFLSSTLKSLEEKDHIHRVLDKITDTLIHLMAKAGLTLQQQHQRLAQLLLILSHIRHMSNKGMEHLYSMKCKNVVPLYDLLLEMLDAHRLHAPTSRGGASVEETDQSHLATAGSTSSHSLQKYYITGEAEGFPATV

Assay [8] concerns the target Voltage-gated inwardly rectifying potassium channel KCNH2 (Homo sapiens, UniProt Q12809). The format is functional. To be noted: read-out: AC50.

Usually AC50 stands for the concentration at which the activity in the assay is half-maximal.
Note: assay procedure not described here.

Chain of Sodium-dependent dopamine transporter (Q01959 whole entry): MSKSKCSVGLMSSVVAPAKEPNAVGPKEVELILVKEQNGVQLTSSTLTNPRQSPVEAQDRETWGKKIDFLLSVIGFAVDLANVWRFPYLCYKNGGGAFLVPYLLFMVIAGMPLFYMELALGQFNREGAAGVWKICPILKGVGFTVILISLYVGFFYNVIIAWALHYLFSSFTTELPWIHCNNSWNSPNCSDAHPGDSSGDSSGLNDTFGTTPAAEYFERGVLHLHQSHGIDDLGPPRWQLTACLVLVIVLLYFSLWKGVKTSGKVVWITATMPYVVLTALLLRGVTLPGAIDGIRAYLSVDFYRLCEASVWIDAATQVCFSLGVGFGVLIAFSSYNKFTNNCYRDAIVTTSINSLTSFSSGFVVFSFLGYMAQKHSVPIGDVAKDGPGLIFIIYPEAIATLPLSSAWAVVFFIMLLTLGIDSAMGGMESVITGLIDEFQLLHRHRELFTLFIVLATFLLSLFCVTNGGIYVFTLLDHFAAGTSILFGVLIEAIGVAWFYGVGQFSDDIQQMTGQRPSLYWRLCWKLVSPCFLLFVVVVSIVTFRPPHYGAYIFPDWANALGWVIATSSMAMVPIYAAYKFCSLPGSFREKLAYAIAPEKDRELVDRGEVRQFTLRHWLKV
T2 sequence (P23219 whole entry): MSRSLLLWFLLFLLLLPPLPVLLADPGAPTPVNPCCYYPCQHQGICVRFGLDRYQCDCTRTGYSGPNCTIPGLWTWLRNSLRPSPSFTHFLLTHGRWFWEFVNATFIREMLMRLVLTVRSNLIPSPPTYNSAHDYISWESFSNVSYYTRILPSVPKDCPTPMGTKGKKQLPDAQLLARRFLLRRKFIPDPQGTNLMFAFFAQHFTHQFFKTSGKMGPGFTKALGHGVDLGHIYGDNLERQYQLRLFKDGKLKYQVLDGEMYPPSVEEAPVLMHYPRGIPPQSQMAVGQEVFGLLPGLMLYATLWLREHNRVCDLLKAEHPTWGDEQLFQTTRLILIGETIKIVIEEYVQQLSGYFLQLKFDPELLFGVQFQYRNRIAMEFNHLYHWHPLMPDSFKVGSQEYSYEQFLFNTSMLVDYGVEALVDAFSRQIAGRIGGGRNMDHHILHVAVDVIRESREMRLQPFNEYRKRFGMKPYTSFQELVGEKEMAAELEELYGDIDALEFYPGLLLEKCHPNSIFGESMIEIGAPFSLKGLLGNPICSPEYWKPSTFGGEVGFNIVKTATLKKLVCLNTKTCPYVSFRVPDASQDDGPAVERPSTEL
Chain of Histamine H3 receptor (Q9Y5N1 whole entry): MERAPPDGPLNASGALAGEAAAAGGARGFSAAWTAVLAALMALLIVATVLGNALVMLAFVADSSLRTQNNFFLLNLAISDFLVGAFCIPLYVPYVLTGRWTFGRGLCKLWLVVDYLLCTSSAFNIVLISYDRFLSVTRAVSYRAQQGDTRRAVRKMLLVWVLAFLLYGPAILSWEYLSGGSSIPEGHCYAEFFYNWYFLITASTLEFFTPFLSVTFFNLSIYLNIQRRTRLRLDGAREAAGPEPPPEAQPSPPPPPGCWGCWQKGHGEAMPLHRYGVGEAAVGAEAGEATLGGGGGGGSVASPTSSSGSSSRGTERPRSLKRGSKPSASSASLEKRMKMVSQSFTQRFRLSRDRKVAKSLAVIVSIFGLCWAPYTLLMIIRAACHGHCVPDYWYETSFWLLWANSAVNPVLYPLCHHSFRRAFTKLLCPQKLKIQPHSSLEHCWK
Chain of Sodium-dependent noradrenaline transporter (P23975 whole entry): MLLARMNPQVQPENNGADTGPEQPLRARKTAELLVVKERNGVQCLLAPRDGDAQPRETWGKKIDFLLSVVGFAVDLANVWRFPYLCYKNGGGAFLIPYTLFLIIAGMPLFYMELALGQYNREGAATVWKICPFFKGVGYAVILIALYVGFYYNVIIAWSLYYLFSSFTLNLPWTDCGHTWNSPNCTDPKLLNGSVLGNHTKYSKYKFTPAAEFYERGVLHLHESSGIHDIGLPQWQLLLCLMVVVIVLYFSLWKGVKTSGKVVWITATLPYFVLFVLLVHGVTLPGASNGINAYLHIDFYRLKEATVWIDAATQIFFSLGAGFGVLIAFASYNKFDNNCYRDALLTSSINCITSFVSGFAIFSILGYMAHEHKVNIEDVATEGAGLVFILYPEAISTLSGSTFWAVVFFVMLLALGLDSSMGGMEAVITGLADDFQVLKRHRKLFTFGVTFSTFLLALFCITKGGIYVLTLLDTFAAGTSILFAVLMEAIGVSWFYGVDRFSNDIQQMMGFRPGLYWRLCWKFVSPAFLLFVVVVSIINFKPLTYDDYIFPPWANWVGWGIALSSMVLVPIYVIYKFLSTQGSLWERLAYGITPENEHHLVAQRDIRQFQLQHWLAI
Chain of Sodium-dependent serotonin transporter (P31645 whole entry): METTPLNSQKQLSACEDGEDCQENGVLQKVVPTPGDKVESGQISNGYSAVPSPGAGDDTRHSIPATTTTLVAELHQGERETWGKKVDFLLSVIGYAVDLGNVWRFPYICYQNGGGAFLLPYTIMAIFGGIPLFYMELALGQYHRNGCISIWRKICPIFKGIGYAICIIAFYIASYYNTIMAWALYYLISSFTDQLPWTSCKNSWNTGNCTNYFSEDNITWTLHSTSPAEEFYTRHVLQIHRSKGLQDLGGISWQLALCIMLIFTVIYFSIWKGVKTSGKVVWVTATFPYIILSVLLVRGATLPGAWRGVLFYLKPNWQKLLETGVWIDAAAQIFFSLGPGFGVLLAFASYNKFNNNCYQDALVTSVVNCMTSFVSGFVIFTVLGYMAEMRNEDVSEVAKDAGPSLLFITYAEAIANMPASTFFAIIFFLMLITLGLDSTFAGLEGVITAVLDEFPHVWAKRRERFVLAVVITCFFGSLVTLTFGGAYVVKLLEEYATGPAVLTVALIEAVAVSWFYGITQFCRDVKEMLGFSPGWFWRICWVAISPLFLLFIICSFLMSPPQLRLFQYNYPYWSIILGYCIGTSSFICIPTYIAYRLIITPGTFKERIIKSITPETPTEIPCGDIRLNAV
Chain of cGMP-inhibited 3',5'-cyclic phosphodiesterase 3A (Q14432 whole entry): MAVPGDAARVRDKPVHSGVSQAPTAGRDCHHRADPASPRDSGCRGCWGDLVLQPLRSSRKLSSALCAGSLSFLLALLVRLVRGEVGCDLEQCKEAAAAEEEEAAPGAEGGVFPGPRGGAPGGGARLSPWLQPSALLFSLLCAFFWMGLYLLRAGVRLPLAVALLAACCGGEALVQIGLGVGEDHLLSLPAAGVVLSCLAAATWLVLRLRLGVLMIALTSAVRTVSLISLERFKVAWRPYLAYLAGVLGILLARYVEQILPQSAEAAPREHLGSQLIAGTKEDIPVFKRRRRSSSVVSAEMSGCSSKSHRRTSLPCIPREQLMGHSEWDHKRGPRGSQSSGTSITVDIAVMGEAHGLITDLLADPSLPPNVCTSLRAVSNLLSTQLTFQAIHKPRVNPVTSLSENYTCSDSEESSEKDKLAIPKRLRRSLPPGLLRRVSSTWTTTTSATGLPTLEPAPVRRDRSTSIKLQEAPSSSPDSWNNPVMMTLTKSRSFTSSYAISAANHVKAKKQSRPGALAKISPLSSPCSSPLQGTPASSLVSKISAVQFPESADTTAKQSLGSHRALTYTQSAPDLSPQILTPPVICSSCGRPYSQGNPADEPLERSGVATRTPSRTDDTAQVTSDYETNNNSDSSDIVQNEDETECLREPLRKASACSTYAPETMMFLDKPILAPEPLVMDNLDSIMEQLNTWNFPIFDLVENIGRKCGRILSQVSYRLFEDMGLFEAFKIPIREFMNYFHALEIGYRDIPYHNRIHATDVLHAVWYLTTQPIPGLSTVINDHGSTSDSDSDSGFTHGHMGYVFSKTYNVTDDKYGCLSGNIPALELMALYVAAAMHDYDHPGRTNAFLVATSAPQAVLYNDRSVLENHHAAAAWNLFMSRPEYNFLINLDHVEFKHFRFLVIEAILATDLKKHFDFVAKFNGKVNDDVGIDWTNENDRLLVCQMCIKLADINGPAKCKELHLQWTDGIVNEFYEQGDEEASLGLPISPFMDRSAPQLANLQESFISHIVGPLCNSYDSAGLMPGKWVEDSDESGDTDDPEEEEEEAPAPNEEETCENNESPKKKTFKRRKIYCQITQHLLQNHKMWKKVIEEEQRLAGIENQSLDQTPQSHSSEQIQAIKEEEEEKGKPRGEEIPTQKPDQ
Chain of Mu-type opioid receptor (P35372 whole entry): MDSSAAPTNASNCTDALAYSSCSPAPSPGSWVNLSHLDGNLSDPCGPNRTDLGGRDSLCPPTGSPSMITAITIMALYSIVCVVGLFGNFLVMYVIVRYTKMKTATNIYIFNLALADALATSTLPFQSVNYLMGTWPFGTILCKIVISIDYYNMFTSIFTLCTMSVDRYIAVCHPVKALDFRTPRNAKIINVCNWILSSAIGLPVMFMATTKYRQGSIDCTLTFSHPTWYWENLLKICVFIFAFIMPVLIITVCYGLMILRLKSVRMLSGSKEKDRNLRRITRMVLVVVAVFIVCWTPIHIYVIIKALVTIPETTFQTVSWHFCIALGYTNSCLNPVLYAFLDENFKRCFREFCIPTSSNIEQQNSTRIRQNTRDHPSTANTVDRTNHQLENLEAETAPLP
Chain of D(3) dopamine receptor (P35462 whole entry): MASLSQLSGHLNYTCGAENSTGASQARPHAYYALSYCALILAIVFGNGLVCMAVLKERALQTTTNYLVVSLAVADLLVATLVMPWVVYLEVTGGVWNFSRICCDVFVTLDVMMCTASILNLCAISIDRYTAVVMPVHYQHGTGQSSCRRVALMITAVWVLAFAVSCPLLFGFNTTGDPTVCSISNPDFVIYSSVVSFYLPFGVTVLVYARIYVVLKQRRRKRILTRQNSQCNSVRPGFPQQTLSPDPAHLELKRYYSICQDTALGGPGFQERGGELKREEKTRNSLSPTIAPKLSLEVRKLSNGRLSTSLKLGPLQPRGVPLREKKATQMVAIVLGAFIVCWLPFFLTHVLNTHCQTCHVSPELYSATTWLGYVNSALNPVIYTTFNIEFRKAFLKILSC

Turning to `CCCCCCCC(=O)N[C@H](CN1CCCC1)[C@H](O)c1ccc2c(c1)OCCO2`, the concentration at half-maximal activity (AC50) in assay [1] was over 30 µM; on Mu-type opioid receptor, 14.1 µM; in [2], over 30 µM; in assay [3], 10.1 µM; at Histamine H3 receptor it was over 30 µM; in [4], 26.5 µM. The AC50 (at D(3) dopamine receptor; in [5]; in [6]; in assay [7]; on Progesterone receptor; at Estrogen receptor) was over 30 µM throughout.

Take `CNC(=O)C[C@@H](N)C(=O)N[C@@H](C(=O)N[C@@H]1C(=O)N2[C@@H]1SC(C)(C)[C@@H]2C(=O)O)c1ccc(O)cc1` [ASPOXICILLIN]: the AC50 (in assay [1]; at Mu-type opioid receptor; in [2]; in [3]; at Histamine H3 receptor; in [4]) was over 30 µM throughout. In addition, the AC50 (on D(3) dopamine receptor; in [5]; in assay [6]; in assay [7]; on Progesterone receptor; at Estrogen receptor) was over 30 µM each time.

Consider `Cc1nnc(SCC2=C(C(=O)O)N3C(=O)[C@@H](NC(=O)Cn4cc(Cl)c(=O)c(Cl)c4)[C@H]3SC2)s1` [CEFAZEDONE], for which the AC50 in assay [1] is over 30 µM; at Mu-type opioid receptor, over 30 µM; in [2], over 30 µM; in assay [3], 8.23 µM; on Histamine H3 receptor, over 30 µM; in [4], 24.8 µM. Also, the AC50 (at D(3) dopamine receptor; in assay [5]; in [6]; in [7]; on Progesterone receptor; at Estrogen receptor) was over 30 µM throughout.

Turning to `C[C@@H]1C[C@H]2[C@@H]3C[C@H](F)C4=CC(=O)C=C[C@]4(C)[C@@]3(Cl)[C@@H](O)C[C@]2(C)[C@H]1C(=O)COC(=O)C(C)(C)C` [CLOCORTOLONE PIVALATE], the AC50 was over 30 µM in assay [1]; over 10 µM at Mu-type opioid receptor; over 30 µM in assay [2]; over 30 µM in [3]; over 30 µM at Histamine H3 receptor; over 30 µM in assay [4]. Moreover, the AC50 was over 30 µM on D(3) dopamine receptor; over 10 µM in [5]; over 30 µM in assay [6]; over 30 µM in assay [7]; 0.0118 µM at Progesterone receptor; over 30 µM on Estrogen receptor.

For the compound `O=P(O)(O)C(Cl)(Cl)P(=O)(O)O` [CLODRONIC ACID], the AC50 (in [1]; at Mu-type opioid receptor; in assay [2]; in assay [3]; at Histamine H3 receptor; in [4]) was over 30 µM throughout. Besides, the AC50 (on D(3) dopamine receptor; in assay [5]; in assay [6]; in [7]; on Progesterone receptor; on Estrogen receptor) was over 30 µM each time.

`Nc1ccncc1` [DALFAMPRIDINE]: the AC50 (in [1]; on Mu-type opioid receptor; in assay [2]; in assay [3]; at Histamine H3 receptor; in [4]) was over 30 µM in each case. Also, the AC50 (at D(3) dopamine receptor; in assay [5]; in assay [6]; in assay [7]; on Progesterone receptor; on Estrogen receptor) was over 30 µM throughout.

Regarding `c1ccc2c(CC3=NCCN3)cccc2c1` [NAPHAZOLINE], the AC50 was over 30 µM in assay [1]; 8.37 µM on Mu-type opioid receptor; over 30 µM in assay [2]; over 30 µM in assay [3]; over 30 µM on Histamine H3 receptor; over 30 µM in [4]. In addition, the AC50 (in [8]; in [5]; in assay [6]; in [7]; on Progesterone receptor; on Estrogen receptor) was over 30 µM throughout.

These data come from ChEMBL document CHEMBL5291721, “A preclinical secondary pharmacology resource illuminates target-adverse drug reaction associations of marketed drugs” (Nat Commun, 2023).
